Assay results taken from US9328078B2, “Benzofurazan anti-amyloid compounds and methods” (Treventis Corporation, priority 2012, dated 2016).
Values joined by “and” are separate entries in the source; they are usually repeats but may differ in a detail not shown here. Equal values may be shown once.

Biological target: Aβ40 (Homo sapiens, UniProt P05067)
Test: kinetic ThT assay for Aβ aggregation
Type: biochemical
Conditions: for IC50: ThT fluorescence, 20 μM Aβ, 37° C., up to 80 hr, parenthesis = compound 1027 in same experiment, read-out: IC50 A β 1-40; for inhibition at 10 µM: compound 10 μM, read-out: % inhib Aβ 40 10 μM; for inhibition at 5 µM: 80 h, read-out: % inhib Aβ 40 (5 μm); for inhibition at 20 µM: read-out: % inhib. A β 40 (20 μM)
Protocol: Aβ40 (1.0 mg) was pre-treated in a 1.5 mL microfuge tube with HFIP (1 mL) and sonicated for 20 min to disassemble any pre-formed Aβ aggregates. The HFIP was removed with a stream of argon and the Aβ dissolved in Tris base (5.8 mL, 20 mM, pH˜10). The pH was adjusted to 7.4 with concentrated HCl (˜10 μL) and the solution filtered using a syringe filter (0.2 μm) before being used.
The kinetic ThT assay for AP aggregation is similar to that of Chalifour et al (Chalifour et al, 2003, J. Biol. Chem. 278:34874-81). Briefly, pre-treated Aβ40 or Aβ42 (40 μM in 20 mM Tris, pH 7.4) was diluted with an equal volume of 8 μM Thioflavin T (ThT) in Tris (20 mM, pH 7.4, 300 mM NaCl). Aliquots of Aβ/ThT (200 μL) were added to wells of a black polystyrene 96-well plate, followed by 2 μL of a compound in DMSO (variable concentration), or DMSO alone (controls). Incubations were performed in triplicate and were taken to contain 20 μM Aβ, various concentration of compound in 20 mM Tris, pH 7.4, 150 mM NaCl, 1% DMSO. Plates were covered with clear polystyrene lids and incubated at 37° C. in a Tecan Genios microplate reader.
Fluorescence readings (λex=450 nm, λem=480 nm) were taken every 15 min., after first shaking at high intensity for 15 s and allowing to settle for 10 s before each reading. Active compounds attenuated the increase in fluorescence over time that occurred in controls. In FIGS. 1-7, the time this procedure was performed extended to 80 hours (rightmost part of X-axis), at which point fluorescence increase generally reached an asymptote. Applying a definition of DMSO control at 80 hr as 100% aggregation (0% inhibition) and DMSO control at 0 hr as 0% aggregation (100% inhibition), a % inhibition score where higher is better can be calculated for a given concentration of compound. By repeating this procedure over several concentrations, a […] (IC50) can be measured, as is given in the table below for some compounds.
Data is summarized in the table below; numbers given in parenthesis are the values in that particular experiment for compound ID 1027, given as the first entry in this table for comparison.

[1] = DMSO control at 80 hr = 0% inhibition, parenthesis = compound 1027
[2] = compound 5 μm, DMSO control at 80 hr = 0% inhibition, parenthesis = compound 1027
[3] = compound 20 μM, DMSO control at 80 hr = 0% inhibition, parenthesis = compound 1027

Chain of Aβ40 (P05067 672-711 limits assumed, species assumed): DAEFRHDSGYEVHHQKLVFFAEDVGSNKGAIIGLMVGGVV

Row | inhibition at 10 µM [1] [%] | inhibition at 5 µM [2] [%] | inhibition at 20 µM [3] [%] | Compound | also measured
1 |  |  |  | CC1CCCN1c1cc(-c2cccc(C(O)C(F)(F)F)c2)cc2nonc12 (mixture of isomers) [TRV-1379] | IC50: 1650 nM
2 | 66.3 |  |  | CC(O)c1cccc(-c2cc(NCc3ccccc3)c3nonc3c2)c1 (stereo not drawn) [TRV-1259] | 
3 | 81.5 |  |  | CC(O)c1cccc(-c2cc(N3CCCC3)c3nonc3c2)c1 (stereo not drawn) [TRV-1310] | 
4 | 72.7 |  |  | CC(O)c1cccc(-c2cc(N(C)Cc3ccccc3)c3nonc3c2)c1 (stereo not drawn) [TRV-1358] | 
5 | 75.2 |  |  | CC(O)c1cccc(-c2cc(N3CCC[C@H]3CO)c3nonc3c2)c1 (stereo partly drawn) [TRV-1359] | 
6 | 58.9 |  |  | OC(c1cccc(-c2cc(N3CCOCC3)c3nonc3c2)c1)C(F)(F)F (stereo not drawn) [TRV-1360] | 
7 | 88.9 |  |  | OC(c1cccc(-c2cc(N3CCCC3)c3nonc3c2)c1)C(F)(F)F (stereo not drawn) [TRV-1361] | 
8 | 41.4 |  |  | CC(=O)c1cccc(-c2cc(N3CCCC3)c3nonc3c2)c1 [TRV-1362] | 
9 |  |  |  | OC(c1ccc(-c2cc(N3CCCC3)c3nonc3c2)s1)C(F)(F)F (stereo not drawn) [TRV-1364] | IC50: 1000 nM
10 |  |  |  | OC(c1ccc(-c2cc(N3CCCC3)c3nonc3c2)cc1)C(F)(F)F (stereo not drawn) [TRV-1365] | IC50: 920 nM
11 |  |  |  | OC(c1ccccc1-c1cc(N2CCCC2)c2nonc2c1)C(F)(F)F (stereo not drawn) [TRV-1366] | IC50: 3030 nM
12 | 61.4 |  |  | OC(c1cc(N2CCCC2)c2nonc2c1)C(F)(F)F (stereo not drawn) [TRV-1368] | 
13 |  |  |  | CN1CCN(c2cc(-c3cccc(C(O)C(F)(F)F)c3)cc3nonc23)CC1 (stereo not drawn) [TRV-1376] | IC50: 51700 nM
14 |  |  |  | CC(C)N(C)c1cc(-c2cccc(C(O)C(F)(F)F)c2)cc2nonc12 (stereo not drawn) [TRV-1377] | IC50: 1860 nM
15 |  |  |  | CN(Cc1ccccc1)c1cc(-c2cccc(C(O)C(F)(F)F)c2)cc2nonc12 (stereo not drawn) [TRV-1378] | IC50: 2380 nM
16 |  | 57.1 |  | OC(c1cccc(-c2cc(NCc3ccccc3)c3nonc3c2)c1)C(F)(F)F (stereo not drawn) [TRV-1380] | 
17 |  | 70.4 |  | OC(c1cccc(-c2cc(N3CCCCC3)c3nonc3c2)c1)C(F)(F)F (stereo not drawn) [TRV-1381] | 
18 |  | 60 |  | CCN(CC)c1cc(-c2cccc(C(O)C(F)(F)F)c2)cc2nonc12 (stereo not drawn) [TRV-1382] | 
19 |  | 54.9 |  | COCCN(C)c1cc(-c2cccc(C(O)C(F)(F)F)c2)cc2nonc12 (stereo not drawn) [TRV-1383] | 
20 |  | 72.4 |  | CCN(C)c1cc(-c2cccc(C(O)C(F)(F)F)c2)cc2nonc12 (stereo not drawn) [TRV-1384] | 
21 |  | 65.6 |  | OC(c1cccc(-c2cc(N3CCSCC3)c3nonc3c2)c1)C(F)(F)F (stereo not drawn) [TRV-1385] | 
22 |  | 51 | 75 | CN(Cc1ccc(F)cc1)c1cc(-c2cccc(C(O)C(F)(F)F)c2)cc2nonc12 (stereo not drawn) [TRV-1390] | 
23 |  | 36 | 69 | CN(Cc1ccccc1)c1cc(C(O)C(F)(F)F)cc2nonc12 (stereo not drawn) [TRV-1392] | 
24 |  | 38 | 61 | CN(Cc1ccc(F)cc1)c1cc(C(O)C(F)(F)F)cc2nonc12 (stereo not drawn) [TRV-1397] | 
25 |  | 48 | 80 | CN(Cc1ccc(F)cc1)c1cc(/C=C/C(O)(C(F)(F)F)C(F)(F)F)cc2nonc12 [TRV-1400] | 
26 |  | 39 | 58 | OC(c1cccc(-c2cc(N3Cc4ccccc4C3)c3nonc3c2)c1)C(F)(F)F (stereo not drawn) [TRV-1401] | 

Row | inhibition at 10 µM [1] [%] | inhibition at 5 µM [2] [%] | inhibition at 20 µM [3] [%] | Compound | also measured
27 |  | 51 | 81 | COC1CN(c2cc(-c3cccc(C(O)C(F)(F)F)c3)cc3nonc23)C1 (stereo not drawn) [TRV-1403] | 
28 |  | 39 | 69 | C#CCN(C)c1cc(-c2cccc(C(O)C(F)(F)F)c2)cc2nonc12 (stereo not drawn) [TRV-1404] | 
29 |  | 46 | 76 | CN(c1cc(-c2cccc(C(O)C(F)(F)F)c2)cc2nonc12)C1CC1 (stereo not drawn) [TRV-1405] | 
30 |  | 53 | 83 | OC1CN(c2cc(-c3cccc(C(O)C(F)(F)F)c3)cc3nonc23)C1 (stereo not drawn) [TRV-1406] | 
31 |  | 50 | 69 | CN(Cc1ccc(F)cc1)c1cc(/C=C/CO)cc2nonc12 [TRV-1409] | 
32 |  | 56 | 81 | COC1CCN(c2cc(-c3cccc(C(O)C(F)(F)F)c3)cc3nonc23)C1 (stereo not drawn) [TRV-1411] | 
33 |  | 51 | 64 | CN(Cc1ccccn1)c1cc(-c2cccc(C(O)C(F)(F)F)c2)cc2nonc12 (stereo not drawn) [TRV-1412] | 
34 |  | 53 | 61.3 | CN(Cc1cccnc1)c1cc(-c2cccc(C(O)C(F)(F)F)c2)cc2nonc12 (stereo not drawn) [TRV-1413] | 
35 |  | 53 | 69 | COc1ccc(CN(C)c2cc(-c3cccc(C(O)C(F)(F)F)c3)cc3nonc23)cc1 (stereo not drawn) [TRV-1414] | 
36 |  | 52 | 53 | COc1cc(CN(C)c2cc(-c3cccc(C(O)C(F)(F)F)c3)cc3nonc23)cc(OC)c1 (stereo not drawn) [TRV-1415] | 
37 |  | 52 | 75 | CN(Cc1ccc(F)cc1)c1cc(C(=O)C(F)(F)F)cc2nonc12 [TRV-1417] | 
38 |  | 34 | 55 | CC(=O)c1cc(N(C)Cc2ccc(F)cc2)c2nonc2c1 [TRV-1418] | 
39 |  | 48 | 55 | OC1(c2cc(N3Cc4ccccc4C3)c3nonc3c2)COC1 [TRV-1419] | 
40 |  | 44 | 48 | OC(c1cc(N2Cc3ccccc3C2)c2nonc2c1)C(F)(F)F (stereo not drawn) [TRV-1420] | 
41 | 41 |  |  | CC(O)/C=C/c1cc(N(C)Cc2ccc(F)cc2)c2nonc2c1 (stereo not drawn) [TRV-1427] | 
42 | 78 |  |  | OCC1CN(c2cc(-c3cccc(C(O)C(F)(F)F)c3)cc3nonc23)C1 (stereo not drawn) [TRV-1428] | 
43 | 51 |  |  | OC(c1cccc(-c2cc(N3CCC3)c3nonc3c2)c1)C(F)(F)F (stereo not drawn) [TRV-1432] | 
44 | 67 | 48 |  | CC1(O)CN(c2cc(-c3cccc(C(O)C(F)(F)F)c3)cc3nonc23)C1 (stereo not drawn) [TRV-1436] | 
45 | 50 | 44 |  | CCOC1CN(c2cc(-c3cccc(C(O)C(F)(F)F)c3)cc3nonc23)C1 (stereo not drawn) [TRV-1437] | 
46 | 60 | 52 |  | O=C(c1cccc(-c2cc(N3CCC3)c3nonc3c2)c1)N1CCNCC1 [TRV-1440] | 
47 | 64 | 47 |  | O=C(NC1CC1)c1cccc(-c2cc(N3CCC3)c3nonc3c2)c1 [TRV-1441] | 
48 | 43 | 29 |  | O=C(c1cccc(-c2cc(N3CCC3)c3nonc3c2)c1)N1CCOCC1 [TRV-1442] | 
49 | 50 | 29 |  | CN(Cc1ccc(F)cc1)c1cc(-c2cccc(C3(O)COC3)c2)cc2nonc12 [TRV-1446] | 
50 | 70 | 54 |  | CC(C)OC1CN(c2cc(-c3cccc(C(O)C(F)(F)F)c3)cc3nonc23)C1 (stereo not drawn) [TRV-1447] | 
51 |  | 33 | 69 | O=C(c1ccccc1)N1CCN(c2ccc([N+](=O)[O-])c(Nc3ccccc3)c2)CC1 [compound 1027, reference compound] | IC50: 10.5 µM (3×) and 14.7 µM and 22.1 µM (3×); % inhib. A β 40 (20 μM) [3]: 52% and 53% and 51%; % inhib Aβ 40 (3 μm) (compound 3 μm, DMSO control at 80 hr = 0% inhibition, parenthesis = compound 1027): 26%; % inhib Aβ 40 (5 μm) [2]: 38% and 33% (3×)
52 | 62 | 43.8 |  | CN(C)CCCN(C)c1cc(-c2cccc(C(O)C(F)(F)F)c2)cc2nonc12 (stereo not drawn) [compound 1463] | 
